According to patent US20240122212A1 (SUNTORY HOLDINGS LIMITED, priority 2020, published 2024):

Assay: Degree of sweetness relative to sucrose
Conditions: for degree of sweetness, median value: median of the range, sucrose = 1; for degree of sweetness at sweetness intensity of 0.3, times as much as that of sucrose / degree of sweetness at sweetness intensity of 4.3, times as much as that of sucrose: value used to design the sample solutions; for degree of sweetness at sweetness intensity of 0.3, times as much as that of sucrose: sweetness intensity 0.3; for degree of sweetness at sweetness intensity of 4.3, times as much as that of sucrose: sweetness intensity 4.3
Excerpt: The “sweetness intensity” means an intensity of sweetness of a substance. […] A numerical value obtained by multiplying the degree of sweetness by a concentration Brix value of glucose is the sweetness intensity of glucose in terms of sucrose. Thus, when a concentration of glucose in terms of sucrose is Brix 1.5, the sweetness intensity of glucose is 0.65×1.5=0.975. The sweetness intensity of a sweetener in terms of sucrose can be calculated from a degree of sweetness shown in the following table or a value of a known degree of sweetness.
For example, when the sweetness intensity of sucrose per unit concentration Brix 1 is defined as a degree of sweetness of 1, a degree of sweetness of rebaudioside D is about 200 to 250 (median value 225), a degree of sweetness of rebaudioside M is about 200 to 260 (median value 230), a degree of sweetness of rebaudioside B is about 325, a degree of sweetness of rebaudioside A is about 200 to 300 (median value 250), a degree of sweetness of rebaudioside N is about 200 to 250 (median value 225), a degree of sweetness of rebaudioside O is about 200 to 250 (median value 225), a degree of sweetness of rebaudioside E is about 70 to 80 (median value 75), a degree of sweetness of a Luo han guo extract (containing 40% of Mog V) is about 110 to 150 (median value 130), a degree of sweetness of mogroside V is about 240 to 300 (median value 270), and a degree of sweetness of thaumatin is about 2,000, and a degree of sweetness of brazzein is about 500 to 2,000 (median value 1,250). The numerical value obtained by multiplying these degrees of sweetness by a concentration (w/v % (considered to be the same as w/w % in the case of a beverage)) of the high-intensity sweetener in a fruit juice beverage is a sweetness intensity of the high-intensity sweetener. The relative ratio in degrees of sweetness of various sweeteners to the degree of sweetness of 1 of sucrose can be determined from a known sugar sweetness conversion table, and the like. In the present description, when a degree of sweetness is shown in a numerical value range, the median value may be used. However, a sweetener having different values in a degree of sweetness by literatures, a relative ratio in a degree of sweetness to the degree of sweetness of 1 of sucrose can be defined by a sensory test. Examples of such a sensory test include a method in which samples were prepared by adding sucrose having a sweetness intensity of Brix 3.0 to 5.0 in 0.5 increments to pure water, and of which a sucrose-added sample having a sweetness intensity equal to an aqueous solution of a sweetener in a predetermined concentration is selected.
Additionally, for a sweetener with a variable degree of sweetness as a sweetness intensity increases, degrees of sweetness in different concentrations are actually measured and plotted whereby a degree of sweetness in a predetermined concentration may be calculated from the obtained approximate curve.

| Structure (SMILES) | degree of sweetness, median value | degree of sweetness at sweetness intensity of 0.3, times as much as that of sucrose [times] | degree of sweetness at sweetness intensity of 4.3, times as much as that of sucrose [times] |
| --- | --- | --- | --- |
| O=C[C@H](O)[C@@H](O)[C@H](O)[C@H](O)CO [Glucose] | 0.65 | – | – |
| C[C@H](CC[C@@H](O[C@@H]1O[C@H](CO[C@@H]2O[C@H](CO)[C@@H](O)[C@H](O)[C@H]2O)[C@@H](O)[C@H](O)[C@H]1O[C@@H]1O[C@H](CO)[C@@H](O)[C@H](O)[C@H]1O)C(C)(C)O)[C@H]1CC[C@@]2(C)[C@@H]3CC=C4[C@@H](CC[C@H](O[C@@H]5O[C@H](CO[C@@H]6O[C@H](CO)[C@@H](O)[C@H](O)[C@H]6O)[C@@H](O)[C@H](O)[C@H]5O)C4(C)C)[C@]3(C)[C@H](O)C[C@]12C [mogroside V] | 270 | – | – |
| C=C1C[C@@]23CC[C@H]4[C@@](C)(CCC[C@@]4(C)C(=O)O[C@@H]4O[C@H](CO)[C@@H](O)[C@H](O)[C@H]4O)[C@@H]2CC[C@]1(O[C@@H]1O[C@H](CO)[C@@H](O)[C@H](O[C@@H]2O[C@H](CO)[C@@H](O)[C@H](O)[C@H]2O)[C@H]1O[C@@H]1O[C@H](CO)[C@@H](O)[C@H](O)[C@H]1O)C3 [rebaudioside A] | 250 | 100 | 190.5 |
| C=C1C[C@@]23CC[C@H]4[C@@](C)(CCC[C@@]4(C)C(=O)O[C@@H]4O[C@H](CO)[C@@H](O)[C@H](O)[C@H]4O[C@@H]4O[C@H](CO)[C@@H](O)[C@H](O)[C@H]4O)[C@@H]2CC[C@]1(O[C@@H]1O[C@H](CO)[C@@H](O)[C@H](O[C@@H]2O[C@H](CO)[C@@H](O)[C@H](O)[C@H]2O)[C@H]1O[C@@H]1O[C@H](CO)[C@@H](O)[C@H](O)[C@H]1O)C3 [rebaudioside D] | 225 | 100 | 190.5 |
| C=C1C[C@@]23CC[C@H]4[C@@](C)(CCC[C@@]4(C)C(=O)O[C@@H]4O[C@H](CO)[C@@H](O)[C@H](O)[C@H]4O[C@@H]4O[C@H](CO)[C@@H](O)[C@H](O)[C@H]4O)[C@@H]2CC[C@]1(O[C@@H]1O[C@H](CO)[C@@H](O)[C@H](O)[C@H]1O[C@@H]1O[C@H](CO)[C@@H](O)[C@H](O)[C@H]1O)C3 [rebaudioside E] | 75 | – | – |
| C=C1C[C@@]23CC[C@H]4[C@@](C)(CCC[C@@]4(C)C(=O)O[C@@H]4O[C@H](CO)[C@@H](O)[C@H](O[C@@H]5O[C@H](CO)[C@@H](O)[C@H](O)[C@H]5O)[C@H]4O[C@@H]4O[C@H](CO)[C@@H](O)[C@H](O)[C@H]4O)[C@@H]2CC[C@]1(O[C@@H]1O[C@H](CO)[C@@H](O)[C@H](O[C@@H]2O[C@H](CO)[C@@H](O)[C@H](O)[C@H]2O)[C@H]1O[C@@H]1O[C@H](CO)[C@@H](O)[C@H](O)[C@H]1O)C3 [rebaudioside M] | 230 | 100 | 190.5 |
| C=C1C[C@@]23CC[C@H]4[C@@](C)(CCC[C@@]4(C)C(=O)O[C@@H]4O[C@H](CO)[C@@H](O)[C@H](O[C@@H]5O[C@H](CO)[C@@H](O)[C@H](O)[C@H]5O)[C@H]4O[C@@H]4O[C@@H](C)[C@H](O)[C@@H](O)[C@H]4O)[C@@H]2CC[C@]1(O[C@@H]1O[C@H](CO)[C@@H](O)[C@H](O[C@@H]2O[C@H](CO)[C@@H](O)[C@H](O)[C@H]2O)[C@H]1O[C@@H]1O[C@H](CO)[C@@H](O)[C@H](O)[C@H]1O)C3 [rebaudioside N] | 225 | – | – |
| C=C1C[C@@]23CC[C@H]4[C@@](C)(CCC[C@@]4(C)C(=O)O[C@@H]4O[C@H](CO)[C@@H](O)[C@H](O[C@@H]5O[C@H](CO)[C@@H](O)[C@H](O)[C@H]5O)[C@H]4O[C@@H]4O[C@@H](C)[C@H](O)[C@@H](O[C@@H]5O[C@H](CO)[C@@H](O)[C@H](O)[C@H]5O)[C@H]4O)[C@@H]2CC[C@]1(O[C@@H]1O[C@H](CO)[C@@H](O)[C@H](O[C@@H]2O[C@H](CO)[C@@H](O)[C@H](O)[C@H]2O)[C@H]1O[C@@H]1O[C@H](CO)[C@@H](O)[C@H](O)[C@H]1O)C3 [rebaudioside O] | 225 | – | – |
